# Measured values reported in ChEMBL document CHEMBL1201862, “PubChem BioAssay data set” (2004).
# Activity calls are given as the source filed them. Non-standard residues stand in square brackets, D forms with d. Residues, ends and D or L forms follow the SMILES beside them.
# How the values were obtained:
# [1] = test system: Jurkat; test: antigen receptor-induced NF-kB inhibitors, dose response, Jurkat, luciferase reporter, luminescence, B- and T-cell (AID 489004); type: functional, cell-based; conditions: Homo sapiens;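 also: NF-kB luciferase reporter Jurkat cells stimulated with PMA plus ionomycin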
# [2] = HepG2 cell cytotoxicity, dose response, cytotoxicity control for Shn3 inhibitor project, CellTiter-Glo, cherry-picked (AID 624134); type: functional, cell-based
# [3] = biological target: T1, Nucleotide-binding oligomerization domain-containing protein 1 (Homo sapiens, UniProt Q9Y239); test: NOD1 signaling inhibitors, SAR follow-up, revised (AID 2333); type: functional
# T1 sequence (Q9Y239 whole entry): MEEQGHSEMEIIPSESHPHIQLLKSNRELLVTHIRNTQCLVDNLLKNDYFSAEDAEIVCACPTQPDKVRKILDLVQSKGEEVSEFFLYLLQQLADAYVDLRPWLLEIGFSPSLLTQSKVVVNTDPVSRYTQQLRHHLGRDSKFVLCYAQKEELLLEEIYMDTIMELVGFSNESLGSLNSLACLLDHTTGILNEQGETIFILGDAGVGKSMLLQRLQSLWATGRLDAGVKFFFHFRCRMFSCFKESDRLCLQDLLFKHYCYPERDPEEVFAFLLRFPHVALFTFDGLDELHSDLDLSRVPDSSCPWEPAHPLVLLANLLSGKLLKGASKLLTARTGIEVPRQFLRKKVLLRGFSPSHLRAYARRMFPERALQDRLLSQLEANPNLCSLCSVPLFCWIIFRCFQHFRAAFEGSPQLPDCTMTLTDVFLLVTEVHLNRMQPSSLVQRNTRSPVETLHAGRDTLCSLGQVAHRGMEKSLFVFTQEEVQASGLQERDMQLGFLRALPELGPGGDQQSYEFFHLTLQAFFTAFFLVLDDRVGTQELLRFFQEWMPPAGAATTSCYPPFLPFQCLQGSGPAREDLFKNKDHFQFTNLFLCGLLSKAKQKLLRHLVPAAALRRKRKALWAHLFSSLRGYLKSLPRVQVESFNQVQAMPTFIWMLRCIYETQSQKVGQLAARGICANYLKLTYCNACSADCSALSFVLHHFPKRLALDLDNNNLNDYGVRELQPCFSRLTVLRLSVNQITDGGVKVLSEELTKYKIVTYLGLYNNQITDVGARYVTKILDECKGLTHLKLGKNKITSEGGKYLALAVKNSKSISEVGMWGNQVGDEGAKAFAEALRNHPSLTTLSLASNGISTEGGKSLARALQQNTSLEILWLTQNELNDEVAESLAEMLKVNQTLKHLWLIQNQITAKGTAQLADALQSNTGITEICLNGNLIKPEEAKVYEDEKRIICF
# [4] = inhibitors of firefly luciferase expression or activity, dose response, H4 neuroglioma cells, luminescence (AID 1990); type: functional, cell-based
# [5] = test system: HEK293; test: NOD2 signaling inhibitors in MDP-stimulated cells, cell-based, uHTS, luminescence (AID 2001); type: functional; conditions: Homo sapiens
# [6] = test system: HEK293; test: NOD1 signaling inhibitors, primary screen, cell-based, luminescence, uHTS (AID 1578); type: functional; conditions: Homo sapiens
# [7] = biological target: Tumor necrosis factor (Homo sapiens, UniProt P01375); test: TNFa-triggered NF-kB activation inhibitors, SAR follow-up, cell-based, revised (AID 2337); type: functional
# [8] = Shn3 3'UTR reporter inhibitors, dose response, cell-based, Clone20 osteoblasts, firefly luciferase, cherry-picked (AID 624132); type: functional;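 also: firefly luciferase luminescence from reporter carrying the Shn3 3'UTR in osteoblasts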
# [9] = test system: HEK293; test: cells; type: functional, cell-based; conditions: Homo sapiens
# [10] = control 3'UTR Renilla luciferase suppression, dose response, counter-screen for Shn3 inhibitor project, cell-based, Clone20-Shn3RL, cherry-picked (AID 624133); type: functional
# [11] = test system: HEK293; test: cells; type: functional, cell-based; conditions: Homo sapiens; remark: listed apart in the source
# [12] = cytotoxicity in HEK-293T NF-kB-Luc cells, dose response, cytotoxicity control for B/T-cell NF-kB inhibitor project, cell-based, uHTS hits (AID 489019); type: functional;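 also: IC50 reflects cytotoxicity as loss of cell viability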
# [13] = test system: HEK293; test: cells; conditions: Homo sapiens
# [14] = Luminescence Cell-Based Dose Response HTS to Identify Inhibitors of 5'UTR Stem-Loop Driven Prion Protein mRNA Translation in H4 Neuroglioblastoma Cells. [Related pubchem assays: 1827 (Project Summary), 1813 (Primary HTS)]; type: functional
# [15] = inhibitors of SNCA 5'UTR-driven reporter translation, confirmation, H4 neuroglioma cells, luminescence (AID 1988); type: functional, cell-based
# [16] = biological target: T2, Heat shock factor protein 1 (Mus musculus, UniProt P38532); test: inhibition of MG132-induced HSE-luciferase signal, confirmation, cell-based, NIH3T3, luminescence, dose retest (AID 2382); type: functional;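 also: NIH3T3 fibroblasts with HSF1-driven luciferase reporter stressed by proteasome inhibitor MG132; luminescence from HSF1-driven luciferase expression after 8 hours of MG132 stress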
# T2 sequence (P38532 whole entry): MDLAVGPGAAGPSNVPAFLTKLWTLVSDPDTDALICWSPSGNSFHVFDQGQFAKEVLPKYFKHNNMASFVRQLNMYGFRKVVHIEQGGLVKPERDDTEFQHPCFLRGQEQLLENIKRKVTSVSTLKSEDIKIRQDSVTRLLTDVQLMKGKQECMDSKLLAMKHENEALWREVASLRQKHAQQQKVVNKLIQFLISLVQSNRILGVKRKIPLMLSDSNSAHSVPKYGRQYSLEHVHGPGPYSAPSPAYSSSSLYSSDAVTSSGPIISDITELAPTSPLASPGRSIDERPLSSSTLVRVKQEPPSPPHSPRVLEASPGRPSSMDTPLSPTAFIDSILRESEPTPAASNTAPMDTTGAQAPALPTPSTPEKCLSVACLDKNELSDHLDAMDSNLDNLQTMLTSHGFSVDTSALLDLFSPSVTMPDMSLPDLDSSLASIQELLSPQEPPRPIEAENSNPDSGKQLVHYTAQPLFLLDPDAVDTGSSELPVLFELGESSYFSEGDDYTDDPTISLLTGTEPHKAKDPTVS
# [17] = biological target: Beta-galactosidase (Escherichia coli, UniProt Q8VNN2); test: PubChem AID 485352; type: functional
# [18] = biological target: T3, Type-1 angiotensin II receptor (Homo sapiens, UniProt P30556); test: AT1 receptor antagonists, dose response, selectivity assay for APJ receptor antagonist project, cell-based, uHTS hits (AID 463214); type: functional;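 also: antagonist potency against angiotensin II stimulated AT1 response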
# T3 sequence (P30556 whole entry): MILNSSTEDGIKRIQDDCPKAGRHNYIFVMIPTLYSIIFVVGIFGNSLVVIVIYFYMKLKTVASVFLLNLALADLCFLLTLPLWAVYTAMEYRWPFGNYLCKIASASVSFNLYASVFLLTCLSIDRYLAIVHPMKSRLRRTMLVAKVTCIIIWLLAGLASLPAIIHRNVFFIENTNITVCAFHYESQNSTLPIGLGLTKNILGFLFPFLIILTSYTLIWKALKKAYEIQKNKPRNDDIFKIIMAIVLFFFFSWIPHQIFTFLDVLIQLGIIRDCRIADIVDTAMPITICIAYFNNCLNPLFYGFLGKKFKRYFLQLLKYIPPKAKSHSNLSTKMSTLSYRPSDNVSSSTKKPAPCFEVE
# [19] = biological target: T4, Tyrosine-protein phosphatase non-receptor type 5 (Homo sapiens, UniProt P54829); test: STEP phosphatase inhibitors, confirmation, biochemical, fluorescence intensity, uHTS hits (AID 602372); type: functional; conditions: read-out: IC50_Mean
# T4 sequence (P54829 whole entry): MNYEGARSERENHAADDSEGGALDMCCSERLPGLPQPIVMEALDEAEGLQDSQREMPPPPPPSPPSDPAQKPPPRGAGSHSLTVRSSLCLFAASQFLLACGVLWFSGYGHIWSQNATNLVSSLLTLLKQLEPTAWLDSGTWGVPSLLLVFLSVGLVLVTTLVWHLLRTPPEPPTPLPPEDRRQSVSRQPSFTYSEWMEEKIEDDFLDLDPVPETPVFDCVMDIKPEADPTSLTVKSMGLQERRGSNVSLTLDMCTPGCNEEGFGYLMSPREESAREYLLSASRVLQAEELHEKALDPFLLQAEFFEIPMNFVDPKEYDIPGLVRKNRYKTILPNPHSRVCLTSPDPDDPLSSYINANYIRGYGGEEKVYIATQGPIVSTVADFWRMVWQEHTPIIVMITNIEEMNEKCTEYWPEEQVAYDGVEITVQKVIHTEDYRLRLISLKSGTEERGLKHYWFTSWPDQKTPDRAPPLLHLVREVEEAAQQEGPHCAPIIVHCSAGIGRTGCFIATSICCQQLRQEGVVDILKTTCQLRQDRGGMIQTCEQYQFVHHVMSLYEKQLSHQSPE
# [20] = biological target: T5, Tyrosine-protein phosphatase non-receptor type 11 (Homo sapiens, UniProt Q06124); test: SHP2 phosphatase inhibition, dose response, selectivity assay for STEP inhibitor project, biochemical (AID 602367); type: functional; conditions: read-out: IC50_Mean
# T5 sequence (Q06124 whole entry): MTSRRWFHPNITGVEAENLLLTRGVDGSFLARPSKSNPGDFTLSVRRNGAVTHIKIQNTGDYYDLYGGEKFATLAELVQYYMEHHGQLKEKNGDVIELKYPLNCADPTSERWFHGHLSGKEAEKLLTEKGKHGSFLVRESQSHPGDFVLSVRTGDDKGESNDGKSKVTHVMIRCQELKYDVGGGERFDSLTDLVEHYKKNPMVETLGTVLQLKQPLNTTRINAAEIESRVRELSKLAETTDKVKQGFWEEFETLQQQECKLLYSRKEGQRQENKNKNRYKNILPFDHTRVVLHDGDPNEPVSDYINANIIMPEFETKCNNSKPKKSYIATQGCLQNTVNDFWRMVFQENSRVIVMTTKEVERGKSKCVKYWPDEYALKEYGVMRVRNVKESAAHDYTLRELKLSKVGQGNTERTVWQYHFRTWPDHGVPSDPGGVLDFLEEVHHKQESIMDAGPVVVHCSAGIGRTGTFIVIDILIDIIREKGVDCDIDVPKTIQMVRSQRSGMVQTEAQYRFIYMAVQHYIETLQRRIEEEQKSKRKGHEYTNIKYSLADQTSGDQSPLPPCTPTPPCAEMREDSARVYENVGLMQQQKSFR
# [21] = biological target: Dual specificity protein phosphatase 3 (Homo sapiens, UniProt P51452); test: VHR phosphatase inhibition, dose response, selectivity assay for STEP inhibitor project, biochemical (AID 602374); type: functional; conditions: read-out: IC50_Mean
# [22] = test system: INS1; test: beta cell apoptosis inhibitors, cytokine rescue, dose response, luminescence, retest (AID 449756); type: functional, cell-based; conditions: Rattus norvegicus;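 also: cell death triggered by IL-1 beta plus TNF-alpha plus IFN-gamma mixture; protective hits raise ATP signal compared with cytokine alone wells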
# [23] = test system: SN12K1; test: cells; type: functional; conditions: Homo sapiens
# [24] = test system: P388/ADR; test: cells; type: functional; conditions: Mus musculus
# [25] = test system: P388; test: cells; type: functional; conditions: Mus musculus
# Chain of Beta-galactosidase (Q8VNN2 whole entry): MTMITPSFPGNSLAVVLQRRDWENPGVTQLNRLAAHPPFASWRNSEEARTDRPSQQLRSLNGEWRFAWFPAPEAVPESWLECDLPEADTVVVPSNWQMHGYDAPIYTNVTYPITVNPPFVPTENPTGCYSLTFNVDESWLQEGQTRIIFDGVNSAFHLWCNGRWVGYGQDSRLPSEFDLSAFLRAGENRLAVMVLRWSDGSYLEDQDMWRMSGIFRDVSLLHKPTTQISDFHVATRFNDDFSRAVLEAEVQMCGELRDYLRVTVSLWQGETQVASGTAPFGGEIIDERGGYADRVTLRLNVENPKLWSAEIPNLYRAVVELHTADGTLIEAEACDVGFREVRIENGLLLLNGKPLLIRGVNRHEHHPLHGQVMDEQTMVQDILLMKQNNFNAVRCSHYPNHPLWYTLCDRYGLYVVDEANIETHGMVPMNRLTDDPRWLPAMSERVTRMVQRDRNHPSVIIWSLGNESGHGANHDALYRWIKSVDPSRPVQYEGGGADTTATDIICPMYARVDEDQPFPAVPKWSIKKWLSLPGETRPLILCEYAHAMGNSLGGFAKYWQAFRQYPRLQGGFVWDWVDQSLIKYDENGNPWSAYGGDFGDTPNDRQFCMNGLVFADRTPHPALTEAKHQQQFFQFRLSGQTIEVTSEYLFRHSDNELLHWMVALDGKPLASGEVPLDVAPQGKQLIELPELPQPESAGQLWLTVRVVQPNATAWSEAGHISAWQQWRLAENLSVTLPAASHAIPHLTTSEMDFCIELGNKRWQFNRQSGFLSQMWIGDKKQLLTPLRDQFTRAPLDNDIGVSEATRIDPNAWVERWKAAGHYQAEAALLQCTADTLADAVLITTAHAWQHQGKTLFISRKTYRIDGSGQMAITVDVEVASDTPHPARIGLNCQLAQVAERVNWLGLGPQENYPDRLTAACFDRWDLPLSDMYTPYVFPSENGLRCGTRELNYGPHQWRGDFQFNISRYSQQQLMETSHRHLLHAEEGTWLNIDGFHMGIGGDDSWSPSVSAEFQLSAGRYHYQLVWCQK
# Chain of Tumor necrosis factor (P01375 whole entry): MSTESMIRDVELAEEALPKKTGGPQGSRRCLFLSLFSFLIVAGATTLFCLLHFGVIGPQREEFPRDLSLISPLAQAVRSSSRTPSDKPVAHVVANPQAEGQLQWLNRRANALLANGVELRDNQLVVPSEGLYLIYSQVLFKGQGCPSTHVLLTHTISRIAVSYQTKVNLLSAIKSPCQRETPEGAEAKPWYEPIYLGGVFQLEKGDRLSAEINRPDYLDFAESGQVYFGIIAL
# Chain of Dual specificity protein phosphatase 3 (P51452 whole entry): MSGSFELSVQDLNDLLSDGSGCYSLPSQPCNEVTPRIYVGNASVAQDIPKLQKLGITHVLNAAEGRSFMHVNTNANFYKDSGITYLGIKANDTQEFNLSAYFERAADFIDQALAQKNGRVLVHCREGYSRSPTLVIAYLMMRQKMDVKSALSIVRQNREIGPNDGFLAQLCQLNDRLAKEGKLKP
structure (smiles),measurement,setting,value
CC(Nc1ncnc2sccc12)c1ccccc1 (stereo unspecified),IC50,[1],> 80 µM (inactive)
same,AC50,[2],1.71 µM (active)
same,IC50,[3],1.55 µM (active)
same,EC50,[4],> 120 µM (not active)
same,IC50,[5],3.62 µM (active)
same,EC50,[6],1.36 µM (active)
same,IC50,[7],2.35 µM (active)
same,AC50,[8],0.505 µM (active)
same,IC50,[9],13.5 µM (active)
same,AC50,[10],0.606 µM (active)
same,IC50,[11],2.67 µM (active)
same,IC50,[12],> 80 µM (inactive)
same,IC50,[13],> 20 µM (inactive)
same,EC50,[14],> 120 µM (not active)
same,EC50,[15],> 120 µM (not active)
same,EC50,[16],> 195 µM (not active)
CC(=O)Nc1ccc(NC(=O)c2ccc(CN3CCc4ccccc4C3)cc2)cc1,IC50,[3],> 20 µM (inactive)
same,IC50,[7],> 20 µM (inactive)
same,IC50,[13],> 20 µM (inactive)
Cc1ccc(NNC(=O)c2c(C)noc2C)cc1Cl,EC50,[17],> 40 µM (inactive)
same,IC50,[18],5.22 µM (active)
CCCCN(CC)Cc1ccc(CN=C(S)Nc2c(C)cc(C)cc2C)o1,IC50,[19],45.9 µM (inactive)
same,IC50,[20],4.52 µM (active)
same,IC50,[21],2.45 µM (active)
Cc1ccc(C(=O)COC(=O)c2ccncc2)cc1[N+](=O)[O-],EC50,[17],> 40 µM (inactive)
same,IC50,[18],20 µM (active)
NNc1nc(-c2ccccc2)cc(-c2ccccc2O)n1,EC50,[17],> 40 µM (inactive)
same,IC50,[18],4.2 µM (active)
same,AC50,[22],1.7 µM (active)
Cc1cc(C)nc(NNS(=O)(=O)c2ccc(Cl)cc2)n1,EC50,[17],> 40 µM (inactive)
same,IC50,[18],> 40 µM (not active)
C=C1C(O)[C@@H]2O[C@]3(CC[C@H](/C=C/C(C)[C@@H]4CC(C)=CC5(O[C@H](C[C@@](C)(O)C(=O)O)CCC5O)O4)O3)CC[C@H]2O[C@@H]1C(O)CC(C)[C@H]1OC2(CCCCO2)CCC1C (stereo partly specified),IC50,[1],0.17 µM (active)
same,IC50,[12],> 80 µM (inactive)
same,AC50,[22],< 0.195 µM (active)
CN(C)CCNc1c2ccccc2c2c3c(cccc13)C(=O)N(CCN(C)C)C2=O,GI50,[23],0.31 µM (active)
same,GI50,[24],0.218 µM (active)
same,GI50,[25],0.0723 µM (active)
CC1NC(=O)CC(c2ccccc2)N(N=O)C1c1ccccc1 (stereo unspecified),GI50,[23],21.6 µM (inactive)
same,GI50,[24],15.3 µM (inactive)
same,GI50,[25],10.3 µM (inactive)
CCCCCCCCCCCC[C@@H](O)[C@H]1CC[C@H]([C@H](O)CCCC[C@H](O)CCCCC[C@@H](O)CC2=C[C@H](C)OC2=O)O1,GI50,[23],< 0.01 µM (active)
same,GI50,[24],0.106 µM (active)
same,GI50,[25],< 0.0366 µM (active)
CC(C)C[C@H](NC(=O)[C@H](CC(C)C)NC(=O)[C@@H](Cc1c[nH]c2ccccc12)NC(=O)[C@H](Cc1ccccc1)NC(=O)[C@@H](Cc1c[nH]c2ccccc12)NC(=O)[C@H](CCC(N)=O)NC(=O)[C@H](CCC(N)=O)NC(=O)[C@H]1CCCN1C(=O)[C@@H](N)CCCCN)C(N)=O (H-K[dP]QQ[dW]F[dW]LL-NH2),GI50,[23],> 100 µM (inactive)
same,GI50,[24],> 100 µM (inactive)
same,GI50,[25],> 100 µM (inactive)
